Data taken from patent US20180228799A1, “Treatment for Neurological and Mental Disorders” (PSYCHOGENICS, INC., priority 2008, published 2018).
“Also recorded” adds a separate entry of the source.

Legend:
[1] = test system: symptoms of ADHD in adults; assay: ADHD-RS-IV, double-blind placebo-controlled crossover trial in adults with ADHD; assay type: in vivo, human; conditions: for ADHD-RS-IV Inattention subscale, Baseline Score / ADHD-RS-IV Hyperactivity subscale, Baseline Score / ADHD-RS-IV Impulsivity subscale, Baseline Score / ADHD-RS-IV Total score, Baseline Score: before treatment
Procedure: The primary objective of this study was to compare the effects of two doses of eltoprazine with placebo on symptoms of ADHD in adults. The primary efficacy parameter is the Attention-Deficit/Hyperactivity Disorder Rating Scale-IV (ADHD-RS-IV).
(§1) This double-blind, multiple-dose, placebo-controlled, crossover study was conducted to assess the effects of 14 days of oral eltoprazine treatment in 48 adults with ADHD. Subjects eligible for study enrollment were to have met Diagnostic and Statistical Manual of Mental Disorders, Fourth Edition, Text Revision (DSM-IV-TR) criteria for ADHD. Assessment was to be made by clinical history, a Structured Clinical Interview for DSM-IV Axis Disorders-Research Version (SCID-RV), and a Conners' Adult ADHD Diagnostic Interview for DSM IV (CAADID).
(§2) Oral doses of eltoprazine hydrochloride were 5 mg/day or 10 mg/day for 14 consecutive days (i.e., 2.5 or 5 mg twice daily (bid), respectively). Eltoprazine hydrochloride was administered in gelatin capsules with calcium hydrogen phosphate, 2H2O, maize starch NF, polyethylene glycol 6000 NF and magnesium stearate NF as excipients.
Primary endpoints were evaluated with the ADHD-RS-IV. After 14 days of treatment with placebo, 5 mg/day, or 10 mg/day eltoprazine, overall symptoms of ADHD were improved as measured by the ADHD-RS-IV, in which higher scores reflect greater impairment.
ADHD-RS-IV, CPT, and CGI-I scores were analyzed separately for those subjects whose baseline score was >40, indicating greater impairment. Twenty-two subjects had baseline ADHD-RS-IV total scores >40.

mice = assay: Timing/Peak Procedure operant test (attention, impulsivity); assay type: in vivo; conditions: 0.1 mg/kg IP, FIG. 1
Text: The Timing/Peak Procedure test is an operant test in which mice are trained to respond to a food reward at a fixed time interval of 30 sec. Mice learn to increase their responding around the 30 sec time period. This test assesses impulsivity, attention and timing perception. A high peak of responding at the 30 sec interval and narrow spread are signatures of the animal's improved attention and time perception.
In brief, mice were placed in a chamber and trained to lever press for food. After training, animals learn to respond after a fixed interval of 30 sec has elapsed as only this fixed interval response produces a reward. With reinforcement delivery the lever is retracted and an inter-trial-interval commences. Once the animal was trained on the reinforced trials, “peak trials” or unreinforced trials are introduced and intermixed with reinforced trials. During these empty trials, no responses were reinforced and the trial lasts for 120 sec (i.e., the lever is extended but reinforcement is not presented). After the 120 sec elapses, the trial terminated, the lever was retracted and the inter-trial-interval started as before. The animals therefore learned that if after a period of 30 sec, no food has been presented there will be no reinforcement delivery until the lever is retracted and the trial starts again.
To perform well on this task, animals need to learn an association between a response (lever pressing) and the delivery of reinforcement (condensed milk), they need to perceive and remember time, they need to act on the remembered time by responding or by inhibiting a response and finally they need to compare the elapsed time during a trial with their memory for the time for reinforcement. A true cognitive enhancer therefore should decrease responding after reinforcement time, without affecting the peak time, i.e., sharpening the curve and reducing the spread in the response curve. A sharpened curve is indicative of heightened attentional processes.

[2] = test system: symptoms of ADHD in adults; assay: Continuous Performance Test (CPT), same trial; assay type: in vivo, human; conditions: 5 or 10 mg/day, 14 days
Procedure: as §1, §2
Secondary endpoints were evaluated with the Clinical Global Impressions-Improvement (CGI-I) and Continuous Performance Test. (CPT). The CGI-I test is used to determine the […] of improvement.

5-HT1D receptor = conditions: compared with serotonin; Schipper et al.; cited from earlier work
[3] = test system: prefrontal cortex (PFC) of C57 mice; assay: Microdialysis in the prefrontal cortex; assay type: in vivo; conditions: 3, 10 and 30 mg/kg, six mice per dose group
Procedure: Microdialysis probes were implanted in the prefrontal cortex; coordinates were: AP+2.0 mm, ML+0.7 mm (under an 8° angle) from bregma, DV −3.3 mm from the dura, with the tooth-bar also set at 0 mm. The active dialysis surface length of the membrane was 2 mm. Microdialysis experiments started 48 h (prefrontal cortex) after surgery. Ringer solution was perfused through the microdialysis probe at a flow at 1.166 μl/min using a high precision pump (KdScientific 220). Mouse dual channel swivels (Type 375/D/22QM, Instech Laboratories, Inc.) connected to PEEK-tubing (ID 0.005,″ OD 0.020″) were used to allow unrestrained movements of the mice. Samples were collected by hand 2.5 h after the start of the dialysis probe perfusion to obtain stable baseline values for the monoamines and their metabolites. The average of the first four samples was calculated and represents the baseline level. Samples were collected every 30 min were analyzed by HPLC with electrochemical detection.
Six mice per dose group were treated with vehicle or eltoprazine at 3 mg/kg, 10 mg/kg and 30 mg/kg.

dopamine receptors = conditions: Schipper et al.; read-out: Ki (affinity for dopamine receptors); cited from earlier work
5-HT1B = 5-HT1B (Homo sapiens, UniProt P28222); conditions: Schipper et al.; cited from earlier work
[4] = 5 mg/day oral, 14 days, all patients N = 38
[5] = 5 mg/day oral, all patients N = 38
[6] = 10 mg/day oral, 14 days, all patients N = 37
[7] = 10 mg/day oral, all patients N = 37
[8] = subjects with baseline score >40 (more severe ADHD), 5 mg/day, 14 days

5-HT1B, sequence (P28222 whole entry, species assumed): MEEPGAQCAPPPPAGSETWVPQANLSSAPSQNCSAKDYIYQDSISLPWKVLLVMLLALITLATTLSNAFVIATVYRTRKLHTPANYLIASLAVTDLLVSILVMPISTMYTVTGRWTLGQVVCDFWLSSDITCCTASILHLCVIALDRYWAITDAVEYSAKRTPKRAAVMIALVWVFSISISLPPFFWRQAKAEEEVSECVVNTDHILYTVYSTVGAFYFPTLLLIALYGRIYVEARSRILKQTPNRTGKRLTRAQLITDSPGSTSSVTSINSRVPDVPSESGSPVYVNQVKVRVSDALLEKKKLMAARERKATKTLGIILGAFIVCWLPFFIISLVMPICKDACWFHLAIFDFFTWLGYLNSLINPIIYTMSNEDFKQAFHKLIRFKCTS

c1cc2c(c(N3CCNCC3)c1)OCCO2 [Eltoprazine, 1-(2,3-dihydro-1,4-benzodioxanyl-5-yl) piperazine]
ADHD-RS-IV Inattention subscale, Post Treatment Score ([1]; 5 mg/day oral (2.5 mg bid), 14 days, all patients N = 38): 14.5
ADHD-RS-IV Inattention subscale, Baseline Score ([1]; 5 mg/day oral (2.5 mg bid), all patients N = 38): 23.8
ADHD-RS-IV Hyperactivity subscale, Change from Baseline [1, 4]: −5.9
ADHD-RS-IV Hyperactivity subscale, Change from Baseline (percent decrease) [1, 4]: 47%
ADHD-RS-IV Hyperactivity subscale, Post Treatment Score [1, 4]: 6.6
ADHD-RS-IV Impulsivity subscale, Change from Baseline [1, 4]: −2.7
ADHD-RS-IV Impulsivity subscale, Change from Baseline (percent decrease) [1, 4]: 44%
ADHD-RS-IV Impulsivity subscale, Post Treatment Score [1, 4]: 3.4
ADHD-RS-IV Inattention subscale, Change from Baseline [1, 4]: −9.4
ADHD-RS-IV Inattention subscale, Change from Baseline (percent decrease) [1, 4]: 39%
ADHD-RS-IV Total score, Change from Baseline [1, 4]: −17.9
ADHD-RS-IV Total score, Change from Baseline (percent decrease) [1, 4]: (42%)
ADHD-RS-IV Total score, Post Treatment Score [1, 4]: 24.5
ADHD-RS-IV Total score, Change from Baseline (percent decrease) ([1]; 5 mg/day oral, 14 days, all patients N = 38, listed as eltoprazine): 42%
ADHD-RS-IV Hyperactivity subscale, Baseline Score [1, 5]: 12.5
ADHD-RS-IV Impulsivity subscale, Baseline Score [1, 5]: 6.1
ADHD-RS-IV Total score, Baseline Score [1, 5]: 42.4
ADHD-RS-IV Inattention subscale, Post Treatment Score ([1]; 10 mg/day oral (5 mg bid), 14 days, all patients N = 37): 14.8
ADHD-RS-IV Inattention subscale, Baseline Score ([1]; 10 mg/day oral (5 mg bid), all patients N = 37): 23.8
ADHD-RS-IV Hyperactivity subscale, Change from Baseline [1, 6]: −5.5
ADHD-RS-IV Hyperactivity subscale, Change from Baseline (percent decrease) [1, 6]: 43%
ADHD-RS-IV Hyperactivity subscale, Post Treatment Score [1, 6]: 7.2
ADHD-RS-IV Impulsivity subscale, Change from Baseline [1, 6]: −2.9
ADHD-RS-IV Impulsivity subscale, Change from Baseline (percent decrease) [1, 6]: 47%
ADHD-RS-IV Impulsivity subscale, Post Treatment Score [1, 6]: 3.2
ADHD-RS-IV Inattention subscale, Change from Baseline [1, 6]: −9.0
ADHD-RS-IV Inattention subscale, Change from Baseline (percent decrease) [1, 6]: 38%
ADHD-RS-IV Total score, Change from Baseline [1, 6]: −17.4
ADHD-RS-IV Total score, Change from Baseline (percent decrease) [1, 6]: (41%)
ADHD-RS-IV Total score, Post Treatment Score [1, 6]: 25.3
ADHD-RS-IV Total score, Change from Baseline (percent decrease) ([1]; 10 mg/day oral, 14 days, all patients N = 37, listed as eltoprazine): 41%
ADHD-RS-IV Hyperactivity subscale, Baseline Score [1, 7]: 12.8
ADHD-RS-IV Impulsivity subscale, Baseline Score [1, 7]: 6.1
ADHD-RS-IV Total score, Baseline Score [1, 7]: 42.7
Selective action on ADHD symptoms (inattention, hyperactivity, impulsivity) ([1]; human clinical study in patients with ADHD): predominantly on inattention and hyperactivity and to a lesser degree impulsivity; also recorded: greater activity treating hyperactivity and inattention compared to impulsivity
ADHD-RS-IV hyperactivity subscale score, decrease from baseline (improvement) [1, 8]: 56%
ADHD-RS-IV impulsivity subscale score, decrease from baseline (improvement) [1, 8]: 55%
ADHD-RS-IV inattention subscale score, decrease from baseline (improvement) [1, 8]: 54%
ADHD-RS-IV total score, decrease from baseline [1, 8]: 55%
Peak of responding (mice): sharpens the peak of responding
Spread of the response curve (mice): significantly reduces the spread
Peak of responding (mice; listed as eltoprazine): sharpened the peak of responding
Effect following chronic administration (mice; chronic administration): no loss of effect
CPT findings [2]: did not result in any statistically significant findings
Binding affinity for the 5-HT1D receptor (5-HT1D receptor): relatively low affinity
Release of dopamine in the PFC ([3]; FIG. 4): significant release; also recorded: dose-related increase
Release of the dopamine metabolite DOPAC in the PFC ([3]; FIG. 5): dose-related increase
Release of the metabolite HVA in the PFC ([3]; FIG. 6): dose-related increase
Release of norepinephrine in the PFC ([3]; FIG. 7): significant release; also recorded: dose-related increase
Ki (dopamine receptors): > 1 µM
Binding affinity for 5-HT1B (5-HT1B): roughly equipotent affinity
